Measurements from patent US9120798B2, “Amino-heteroaryl 7-hydroxy-spiropiperidine indolinyl antagonists of P2Y1 receptor” (priority 2012, dated 2015).

What was measured:
[1] = tested on: human platelet rich plasma (PRP); test: ADP induced platelet aggregation assay; assay type: cell-based; conditions: 5 min, read-out: PA IC50 (μM) @ 10 μM ADP
Description: ADP Induced Platelet Aggregation Assay
The ability of P2Y1 antagonists covered in the present invention to inhibit platelet aggregation induced by 10 μM ADP was tested using human platelet rich plasma (PRP) as described in Platelet Protocols: Research and Clinical Laboratory Procedures (White, M. M. et al., Academic Press (1999)). Human blood was collected in 30 μM (final concentration in blood) argatroban (GSK) as the anticoagulant at a ratio of 1 ml per 9 ml of blood. The PRP was isolated by centrifugation at 170 g for 12 minutes. The platelet poor plasma (PPP) was used as the blank for optical aggregometry. Compounds of the present invention in DMSO solution was preincubated with 250 μl PRP at 37° C. for 1 minute with stirring speed of 1000 rpm. Aggregation was initiated by addition of 2.5 μl of 1 mM ADP (Chrono-log, Havertown, Pa.) for a final ADP concentration of 10 uM. Platelet aggregation was monitored using Optical Aggregometer (Chrono-log, Havertown, Pa.) and the area under the curve (AUC) at 5 minute was measured. IC50 was calculated using vehicle control as 0% inhibition.
The platelet aggregation assay measures the in vitro antiplatelet activity of a compound in platelet rich plasma. The assay is sensitive to plasma protein binding, and is believed to be a better predictor of actual in vivo activity.

[2] = molecular target: T1, cloned human P2Y1 receptors (Homo sapiens (Human), UniProt P47900); test: Binding Assay A: membrane binding assay, [33P] 2MeS-ADP, WGA FlashPlates
T1 sequence (P47900 whole entry): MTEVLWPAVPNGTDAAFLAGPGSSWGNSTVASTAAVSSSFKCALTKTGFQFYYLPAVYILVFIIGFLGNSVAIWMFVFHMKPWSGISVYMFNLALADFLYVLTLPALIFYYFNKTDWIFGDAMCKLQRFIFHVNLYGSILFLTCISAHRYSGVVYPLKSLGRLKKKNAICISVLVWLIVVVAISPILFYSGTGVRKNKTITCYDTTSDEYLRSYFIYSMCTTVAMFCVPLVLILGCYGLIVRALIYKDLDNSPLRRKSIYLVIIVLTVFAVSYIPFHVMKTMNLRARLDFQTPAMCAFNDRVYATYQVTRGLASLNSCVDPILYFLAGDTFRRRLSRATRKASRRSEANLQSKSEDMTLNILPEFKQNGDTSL
From the text: A membrane binding assay was used to identify inhibitors of [^33P] […] The cDNA clone for human P2Y1 was obtained from Incyte Pharmaceuticals and its sequence confirmed by established techniques (for a compendium of techniques used see Ausubel, F. et al. Current Protocols in Molecular Biology, John Wiley and Sons, NY, N.Y. (1995)). The essential coding sequences were subcloned into pCDNA 3.1 (Invitrogen) to produce a P2Y1 expression construct. This construct was then transfected into the human embryonic kidney cell line HEK-293 and stable transfectants selected in GENETICIN® (G418 sulfate; Life Technologies). […] Membranes were prepared by growing HEK293 #49 in 150 mm dishes in DMEM/10% FBS in the presence of 1 mg/ml G418 until cells were 80-90% confluent. Plates were then washed with cold (4° C.) D-PBS twice and cells harvested by scraping into 10 mL D-PBS. Cells were pelleted by centrifugation (1,000 g, 10 min, 4° C.) and the resulting pellet resuspended in Lysis Buffer (10 mM Tris (7.4), 5 mM MgCl2 containing Complete protease inhibitor cocktail (Roche Cat #1873580) as recommended by the manufacturer). The suspension was then homogenized in a Dounce homogenizer (10-15 strokes; B pestle, on ice) and the homogenate spun at 1,000 g, 4° C., 5 min to pellet large debris. The supernatant was centrifuged at 150,000 g, 4° C., for 1 hour and the resulting membrane pellet resuspended in 0.5-1 mL of Buffer B (15 mM HEPES (7.4), 145 mM NaCl, 0.1 mM MgCl2, 5 mM EDTA, 5 mM KCl) and stored at −70° C. until used.
Binding reactions were performed in WGA FlashPlates (PerkinElmer Life Sciences, Cat # SMP105A) in a volume of 200 μL containing ˜45 fmol of P2Y1 receptor (5 μg of total protein), 0.5 nM [^33P] […] Reactions were allowed to proceed to completion at room temperature for 1 hour and then the aqueous solution aspirated. Plates were sealed and the residual [^33P] bound to the plate determined by scintillation counting.

[3] = molecular target: T1, cloned human P2Y1 receptors; test: Binding Assay B: Scintillation Proximity Assay (SPA) for P2Y1 binding
Description: Binding Assay B—Scintillation Proximity Assay (SPA) for P2Y1 Binding
A SPA membrane binding assay was used to identify inhibitors of [^33P] […] Binding reactions were performed in 384-well OptiPlates (PerkinElmer Life Sciences, Cat #6007299) in a volume of 50 μL containing ˜15 fmol of P2Y1 receptor (1.7 μg of total protein), 0.3 nM [^33P] […] Reactions were allowed to proceed to completion at room temperature for 1 hour followed by centrifugation of the plate for 5 min. About 40 μL of the aqueous solution was aspirated. Plates were sealed and the [^33P]

[4] = read-out: P2Y1 Ki (nM), *Using binding assay A
[5] = SPA, 0.3 nM [33P] 2MeS-ADP, Cheng-Prusoff, read-out: P2Y1 Ki (nM) using binding assay B

Row | SMILES | IC50 [1] [µM] | Ki [3] [nM] | also measured
1 | Cc1cc(-c2nnc(Nc3ccccc3N3CC4(CCN(CC(C)(C)C)CC4)c4c(Cl)ccc(O)c43)s2)n(C)n1 [Example 13, 4-Chloro-1-(2-((5-(1,3-dimethyl-1H-pyrazol-5-yl)-1,3,4-thiadiazol-2-yl)amino)phenyl)-1′-neopentylspiro[indoline-3,4′-piperidin]-7-ol] | 0.9 | – | Ki ([2]; starred values, FlashPlate, 0.5 nM [33P] 2MeS-ADP, Cheng-Prusoff, read-out: P2Y1 Ki (nM), *Using binding assay A): 6.6 nM
2 | CC(C)(C)CN1CCC2(CC1)CN(c1ccccc1Nc1nnc(-c3ccc(C(F)(F)F)nc3)s1)c1c(O)ccc(Cl)c12 [Example 15, 4-Chloro-1′-neopentyl-1-(2-((5-(6-(trifluoromethyl)pyridin-3-yl)-1,3,4-thiadiazol-2-yl)amino)phenyl)spiro[indoline-3,4′-piperidin]-7-ol] | 1.6 | – | Ki [2]: 5.7 nM
3 | CC(C)(C)CN1CCC2(CC1)CCN(c1ccccc1Nc1nc3ccc(C(C)(C)C)cc3[nH]1)c1ccccc12 [Comparator 1, reference compound] | > 40 | – | Ki [2, 4]: 259 nM
4 | COC(=O)c1sc(Nc2ccccc2N2CC3(CCN(CC(C)(C)C)CC3)c3ccccc32)nc1C [Comparator 3, reference compound] | > 40 | – | Ki [2, 4]: 18 nM
5 | CC(C)(C)CN1CCC2(CC1)CN(c1ccccc1Nc1nnc(-c3ccc(OC(F)(F)F)cc3)s1)c1c(O)ccc(F)c12 [Example 30, 4-fluoro-1′-neopentyl-1-(2-((5-(4-(trifluoromethoxy)-phenyl)-1,3,4-thiadiazol-2-yl)amino)phenyl)spiro[indoline-3,4′-piperidin]-7-ol] | 2 | 5 | –
6 | CC(C)(C)CN1CCC2(CC1)CN(c1ccccc1Nc1nnc(-c3cccc(F)c3)s1)c1c(O)ccc(C(F)(F)F)c12 [Example 5, 1-(2-(5-(3-Fluorophenyl)-1,3,4-thiadiazol-2-ylamino)phenyl)-1′-neopentyl-4-(trifluoromethyl)spiro[indoline-3,4′-piperidin]-7-ol] | 1.6 | 12 | –
7 | CC(C)(C)CN1CCC2(CC1)CN(c1ccccc1Nc1nnc(-c3ccc(C(C)(C)C)cc3)s1)c1c(O)ccc(C(F)(F)F)c12 [Example 2, 1-(2-(5-(4-tert-Butylphenyl)-1,3,4-thiadiazol-2-ylamino)phenyl)-1′-neopentyl-4-(trifluoromethyl)spiro[indoline-3,4′-piperidin]-7-ol] | 0.9 | – | Ki [3, 5]: 26 nM
8 | Cn1nc(C(C)(C)C)cc1-c1nnc(Nc2ccccc2N2CC3(CCN(CC(C)(C)C)CC3)c3c(Cl)ccc(O)c32)s1 [Example 18, 1-(2-((5-(3-(tert-butyl)-1-methyl-1H-pyrazol-5-yl)-1,3,4-thiadiazol-2-yl)amino)phenyl)-4-chloro-1′-neopentylspiro[indoline-3,4′-piperidin]-7-ol] | 1.8 | 33 | –
9 | CC(C)(C)CN1CCC2(CC1)CN(c1ccccc1Nc1nc(C(C)(C)C)ns1)c1c(O)ccc(Cl)c12 [Example 36, 1-(2-(3-tert-Butyl-1,2,4-thiadiazol-5-ylamino)phenyl)-4-chloro-1′-neopentylspiro[indoline-3,4′-piperidin]-7-ol] | 2.1 | 8 | –
10 | CC(C)(C)CN1CCC2(CC1)CN(c1ccccc1Nc1ccc(C(F)(F)F)cn1)c1c(O)ccc(Cl)c12 [Example 42, 4-Chloro-1′-neopentyl-1-(2-(5-(trifluoromethyl)pyridin-2-ylamino)phenyl)spiro[indoline-3,4′-piperidin]-7-ol] | 22.8 | 22 | –
11 | CC(C)(C)CN1CCC2(CC1)CN(c1ccccc1Nc1nnc(-c3ccccn3)s1)c1c(O)ccc(C(F)(F)F)c12 [Example 6, 1′-Neopentyl-1-(2-(5-(pyridin-2-yl)-1,3,4-thiadiazol-2-ylamino)phenyl)-4-(trifluoromethyl)spiro[indoline-3,4′-piperidin]-7-ol] | 2.3 | 11 | –
12 | CC(C)(C)CN1CCC2(CC1)CN(c1ccccc1Nc1nnc(-c3ccc(OC(F)(F)F)cc3)s1)c1c(O)cc(F)c(F)c12 [Example 34, 4,5-difluoro-1′-neopentyl-1-(2-((5-(4-(trifluoromethoxy)-phenyl)-1,3,4-thiadiazol-2-yl)amino)phenyl)spiro[indoline-3,4′-piperidin]-7-ol] | 9.9 | 37 | –
13 | CC(C)(C)CN1CCC2(CC1)CN(c1ccccc1Nc1nnc(-c3ccc(OC(F)(F)F)cc3)s1)c1c(O)cc(F)c(Cl)c12 [Example 33, 4-chloro-5-fluoro-1′-neopentyl-1-(2-((5-(4-(trifluoromethoxy)-phenyl)-1,3,4-thiadiazol-2-yl)amino)phenyl)spiro[indoline-3,4′-piperidin]-7-ol] | 9.2 | 23 | –
14 | CC(C)(C)CN1CCC2(CC1)CN(c1ccccc1Nc1nnc(-c3ccc(Cl)cc3)s1)c1c(O)ccc(Cl)c12 [Example 21, 4-chloro-1-(2-((5-(4-chloro-phenyl)-1,3,4-thiadiazol-2-yl)amino)phenyl)-1′-neopentylspiro[indoline-3,4′-piperidin]-7-ol] | 1.3 | – | Ki [3, 5]: 13 nM
15 | CC(C)(C)CN1CCC2(CC1)CN(c1ccccc1Nc1nnc(-c3ccc(Cl)c(Cl)c3)s1)c1c(O)ccc(Cl)c12 [Example 25, 4-chloro-1-(2-((5-(3,4-dichloro-phenyl)-1,3,4-thiadiazol-2-yl)amino)phenyl)-1′-neopentylspiro[indoline-3,4′-piperidin]-7-ol] | 3.7 | 19 | –
16 | CC(C)(C)CN1CCC2(CC1)CN(c1ccccc1Nc1nnc(-c3ccc(C(F)(F)F)cc3)s1)c1c(O)ccc(C(F)(F)F)c12 [Example 3, 1′-Neopentyl-4-(trifluoromethyl)-1-(2-(5-(4-(trifluoromethyl)phenyl)-1,3,4-thiadiazol-2-ylamino)phenyl)spiro[indoline-3,4′-piperidin]-7-ol] | 0.5 | – | Ki [3, 5]: 16 nM
17 | CC(C)(C)CN1CCC2(CC1)CN(c1ccccc1Nc1ncc(-c3ccccc3)s1)c1c(O)ccc(Cl)c12 [Example 11, 4-Chloro-1′-neopentyl-1-(2-(5-phenylthiazol-2-ylamino)phenyl)spiro[indoline-3,4′-piperidin]-7-ol] | 3.7 | 16 | –
18 | COC(=O)c1nnc(Nc2ccccc2N2CC3(CCN(CC(C)(C)C)CC3)c3c(Cl)ccc(O)c32)s1 [Example 17, methyl 5-((2-(4-chloro-7-hydroxy-1′-neopentylspiro[indoline-3,4′-piperidin]-1-yl)phenyl)-amino)-1,3,4-thiadiazole-2-carboxylate] | 7.2 | 48 | –
19 | CC(C)(C)CN1CCC2(CC1)CN(c1ccccc1Nc1nnc(-c3ccccc3Cl)s1)c1c(O)ccc(Cl)c12 [Example 19, 4-chloro-1-(2-((5-(2-chloro-phenyl)-1,3,4-thiadiazol-2-yl)amino)phenyl)-1′-neopentylspiro[indoline-3,4′-piperidin]-7-ol] | 10.7 | – | Ki [3, 5]: 28 nM
20 | COC(=O)c1ccc(O)c2c1C1(CCN(CC(C)(C)C)CC1)CN2c1ccccc1Nc1nnc(-c2ccc(C(F)(F)F)cc2)s1 [Example 43, Methyl 7-hydroxy-1′-neopentyl-1-(2-(5-(4-(trifluoromethyl)phenyl)-1,3,4-thiadiazol-2-ylamino)phenyl)spiro[indoline-3,4′-piperidine]-4-carboxylate] | 3.1 | 8 | –
